This note sets out measurements from ChEMBL document CHEMBL5465560, “Selectivity Literature for EUbOPEN Chemogenomic Library” (2024).

Assay [1] concerns the target RAC-alpha serine/threonine-protein kinase (Homo sapiens, UniProt P31749). As to the kind of experiment: Selectivity interaction (Kinase panel (Z-LYTE Assay)) EUB0001632a AKT1. Particulars: at 10 µM.
The subject of assay [2] is Tyrosine-protein kinase ABL1 (Homo sapiens), P00519 [E255K]. As to the kind of experiment: (§1) Selectivity interaction (KinomeScan (DiscoverX)) EUB0000655a ABL1. Particulars: at 10 µM.
Assay [3] has as its system Tyrosine-protein kinase ABL1 (Homo sapiens), P00519 [F317I]. The description is as §1. Particulars: at 10 µM.
The subject of assay [4] is Tyrosine-protein kinase ABL1 (Homo sapiens), P00519 [F317L]. The description is as §1. Particulars: at 10 µM.
For assay [5], the system named is Tyrosine-protein kinase ABL1 (Homo sapiens), P00519 [H396P]. The description is as §1. Particulars: at 10 µM.
Assay [6] relates to Tyrosine-protein kinase ABL1 (Homo sapiens), P00519 [M351T]. The description is as §1. Particulars: at 10 µM.
The test system of assay [7] is Tyrosine-protein kinase ABL1 (Homo sapiens), P00519 [Q252H]. The assay is described as §1. Particulars: at 10 µM.
The subject of assay [8] is Tyrosine-protein kinase ABL1 (Homo sapiens), P00519 [T315I]. The description is as §1. Particulars: at 10 µM.
For assay [9], the system named is Tyrosine-protein kinase ABL1 (Homo sapiens), P00519 [Y253F]. The assay is described as §1. Particulars: at 10 µM.
In assay [10] the target is Tyrosine-protein kinase ABL1 (Homo sapiens, UniProt P00519). The assay is described as §1. Particulars: at 10 µM.
Assay [11] concerns the target High affinity nerve growth factor receptor (Homo sapiens, UniProt P04629). Description: Selectivity interaction (KinomeScan (DiscoverX)) EUB0000655a NTRK1. Particulars: at 10 µM.
The target in assay [12] is Receptor tyrosine-protein kinase erbB-2 (Homo sapiens, UniProt P04626). As to the kind of experiment: Selectivity interaction (Radiometric kinase assay (using 10 uM ATP)) EUB0000601a ERBB2.
Chain of Receptor tyrosine-protein kinase erbB-2 (P04626 whole entry): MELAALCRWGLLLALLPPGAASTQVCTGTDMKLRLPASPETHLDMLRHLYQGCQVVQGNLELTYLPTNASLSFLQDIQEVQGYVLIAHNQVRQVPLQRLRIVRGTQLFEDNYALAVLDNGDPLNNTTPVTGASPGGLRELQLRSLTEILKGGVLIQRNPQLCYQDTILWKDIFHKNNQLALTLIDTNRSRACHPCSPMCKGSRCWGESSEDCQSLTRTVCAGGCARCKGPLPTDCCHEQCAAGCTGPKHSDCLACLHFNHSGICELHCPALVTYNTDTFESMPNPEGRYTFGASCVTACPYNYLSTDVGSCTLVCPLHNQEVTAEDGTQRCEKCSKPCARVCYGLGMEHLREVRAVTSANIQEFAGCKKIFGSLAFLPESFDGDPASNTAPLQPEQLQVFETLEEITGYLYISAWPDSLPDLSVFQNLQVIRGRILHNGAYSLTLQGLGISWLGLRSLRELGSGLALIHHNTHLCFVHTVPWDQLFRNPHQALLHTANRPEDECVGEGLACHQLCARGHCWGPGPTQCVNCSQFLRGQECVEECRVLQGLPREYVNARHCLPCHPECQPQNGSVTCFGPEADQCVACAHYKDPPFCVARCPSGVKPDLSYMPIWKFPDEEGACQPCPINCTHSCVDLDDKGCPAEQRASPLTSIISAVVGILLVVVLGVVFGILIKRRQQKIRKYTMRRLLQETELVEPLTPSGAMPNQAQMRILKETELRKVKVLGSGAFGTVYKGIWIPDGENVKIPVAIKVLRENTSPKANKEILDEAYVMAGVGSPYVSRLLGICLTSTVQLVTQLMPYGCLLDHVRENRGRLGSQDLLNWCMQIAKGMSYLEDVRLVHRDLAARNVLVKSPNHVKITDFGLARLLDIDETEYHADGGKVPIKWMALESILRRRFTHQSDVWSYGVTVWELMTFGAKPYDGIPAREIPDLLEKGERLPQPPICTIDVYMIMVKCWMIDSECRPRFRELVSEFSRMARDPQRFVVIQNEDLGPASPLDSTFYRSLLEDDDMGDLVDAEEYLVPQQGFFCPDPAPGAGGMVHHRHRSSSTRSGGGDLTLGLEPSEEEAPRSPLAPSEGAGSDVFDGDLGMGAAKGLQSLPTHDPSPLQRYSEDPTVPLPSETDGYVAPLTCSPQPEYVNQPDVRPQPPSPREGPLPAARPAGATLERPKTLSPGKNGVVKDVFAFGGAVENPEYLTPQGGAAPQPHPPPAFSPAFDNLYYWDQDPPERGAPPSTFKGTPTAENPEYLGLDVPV
In assay [13] the target is Serine/threonine-protein kinase Chk2 (Homo sapiens) (UniProt O96017). Description: Selectivity interaction (ActivX KiNativ screen (kinase selectivity in THP-1 cell lysates)) EUB0000639a CHEK2. The assay is classed as subcellular. Particulars: lysate, at 0.01 µM.
Chain of Serine/threonine-protein kinase Chk2 (Homo sapiens) (O96017 whole entry): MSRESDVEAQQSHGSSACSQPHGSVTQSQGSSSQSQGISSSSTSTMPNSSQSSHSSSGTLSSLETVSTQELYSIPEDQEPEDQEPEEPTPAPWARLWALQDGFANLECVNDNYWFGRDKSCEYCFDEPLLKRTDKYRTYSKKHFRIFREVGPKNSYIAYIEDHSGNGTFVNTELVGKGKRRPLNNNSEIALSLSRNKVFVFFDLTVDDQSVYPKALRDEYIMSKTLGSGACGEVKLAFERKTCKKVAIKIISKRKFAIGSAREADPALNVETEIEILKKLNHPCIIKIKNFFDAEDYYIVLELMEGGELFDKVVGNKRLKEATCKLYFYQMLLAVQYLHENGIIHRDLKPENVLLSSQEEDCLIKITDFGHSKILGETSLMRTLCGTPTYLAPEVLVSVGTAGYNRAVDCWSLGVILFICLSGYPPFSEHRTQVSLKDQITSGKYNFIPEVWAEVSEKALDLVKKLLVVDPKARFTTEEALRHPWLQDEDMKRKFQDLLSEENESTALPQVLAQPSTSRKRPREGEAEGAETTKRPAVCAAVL
The target in assay [14] is T1, Serine/threonine-protein kinase D1 (Homo sapiens) (UniProt Q15139).
T1 sequence (whole entry): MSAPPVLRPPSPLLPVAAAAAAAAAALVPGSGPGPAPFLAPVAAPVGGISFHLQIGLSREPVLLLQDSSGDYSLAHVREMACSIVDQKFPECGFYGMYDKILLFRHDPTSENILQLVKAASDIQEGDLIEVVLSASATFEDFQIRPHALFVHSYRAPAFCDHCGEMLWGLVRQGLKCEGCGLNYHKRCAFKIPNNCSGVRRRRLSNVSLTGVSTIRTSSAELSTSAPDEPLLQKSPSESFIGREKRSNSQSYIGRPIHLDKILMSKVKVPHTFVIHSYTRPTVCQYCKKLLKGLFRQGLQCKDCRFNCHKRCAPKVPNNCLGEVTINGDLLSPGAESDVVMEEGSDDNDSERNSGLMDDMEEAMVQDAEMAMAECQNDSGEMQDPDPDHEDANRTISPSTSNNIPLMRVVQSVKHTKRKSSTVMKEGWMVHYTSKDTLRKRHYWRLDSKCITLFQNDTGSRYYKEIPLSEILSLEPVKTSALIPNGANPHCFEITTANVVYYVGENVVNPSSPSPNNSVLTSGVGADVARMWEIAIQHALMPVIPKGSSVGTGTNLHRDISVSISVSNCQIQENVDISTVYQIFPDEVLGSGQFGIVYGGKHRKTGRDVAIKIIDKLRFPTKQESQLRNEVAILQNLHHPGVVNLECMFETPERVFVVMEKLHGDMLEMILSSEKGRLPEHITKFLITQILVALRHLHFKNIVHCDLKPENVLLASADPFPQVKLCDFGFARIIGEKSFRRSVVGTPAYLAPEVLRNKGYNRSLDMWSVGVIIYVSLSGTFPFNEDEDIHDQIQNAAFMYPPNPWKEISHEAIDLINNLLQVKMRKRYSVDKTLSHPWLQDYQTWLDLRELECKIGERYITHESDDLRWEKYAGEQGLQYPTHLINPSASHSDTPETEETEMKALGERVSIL
As to the kind of experiment: Selectivity interaction (Millipore kinase profiler) EUB0000124b PRKD1. Particulars: at 10 µM.

In assay [15] the target is T2, Serine/threonine-protein kinase TBK1 (Homo sapiens) (UniProt Q9UHD2).
T2 sequence (whole entry): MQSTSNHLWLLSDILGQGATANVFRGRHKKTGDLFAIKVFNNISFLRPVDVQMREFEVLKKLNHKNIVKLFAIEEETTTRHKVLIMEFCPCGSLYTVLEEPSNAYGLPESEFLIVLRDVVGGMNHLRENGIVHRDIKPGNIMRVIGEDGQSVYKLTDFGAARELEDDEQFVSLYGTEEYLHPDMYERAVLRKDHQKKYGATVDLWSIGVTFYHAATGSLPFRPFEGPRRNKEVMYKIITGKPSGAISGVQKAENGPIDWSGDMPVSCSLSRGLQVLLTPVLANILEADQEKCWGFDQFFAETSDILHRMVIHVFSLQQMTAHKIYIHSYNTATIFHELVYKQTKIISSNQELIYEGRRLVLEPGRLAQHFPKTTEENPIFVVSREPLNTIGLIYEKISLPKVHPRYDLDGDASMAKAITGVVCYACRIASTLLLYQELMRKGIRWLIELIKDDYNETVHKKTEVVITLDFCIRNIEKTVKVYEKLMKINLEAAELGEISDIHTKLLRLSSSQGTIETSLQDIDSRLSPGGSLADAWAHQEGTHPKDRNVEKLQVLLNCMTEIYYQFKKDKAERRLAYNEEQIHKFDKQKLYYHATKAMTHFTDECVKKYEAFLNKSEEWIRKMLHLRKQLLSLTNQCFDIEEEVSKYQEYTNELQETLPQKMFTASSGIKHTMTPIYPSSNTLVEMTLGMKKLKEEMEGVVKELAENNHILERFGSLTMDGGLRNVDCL
As to the kind of experiment: Selectivity interaction (KinomeScan (DiscoverX)) EUB0001049a TBK1. Particulars: at 1 µM.

Assay [16] addresses MAP/microtubule affinity-regulating kinase 3 (Homo sapiens) (UniProt P27448). Description: Selectivity interaction (KinomeScan (DiscoverX)) EUB0000618a MARK3. Particulars: at 10 µM.
Assay [17] concerns the target Cyclin-dependent kinase 5/CDK5 activator 1 (Homo sapiens) (UniProt Q00535+Q15078). As to the kind of experiment: Selectivity interaction (Upstate Kinase Profiler service (Millipore)) EUB0000056c CDK5. The assay is classed as protein-complex assay. Particulars: at 1 µM.
The target of assay [18] is T3, Dual specificity mitogen-activated protein kinase kinase 6 (Homo sapiens) (UniProt P52564).
T3 sequence (whole entry): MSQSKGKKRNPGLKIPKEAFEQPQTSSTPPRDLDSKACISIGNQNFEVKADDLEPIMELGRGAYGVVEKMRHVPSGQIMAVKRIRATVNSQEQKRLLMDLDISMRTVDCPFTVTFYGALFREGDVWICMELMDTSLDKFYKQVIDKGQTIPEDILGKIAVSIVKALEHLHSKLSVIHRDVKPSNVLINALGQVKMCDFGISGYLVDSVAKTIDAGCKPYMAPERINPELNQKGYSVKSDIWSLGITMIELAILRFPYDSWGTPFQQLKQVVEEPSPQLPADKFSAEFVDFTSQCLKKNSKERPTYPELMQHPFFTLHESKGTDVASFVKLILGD
Description: Selectivity interaction (KinomeScan (DiscoverX)) EUB0000595a MAP2K6. Particulars: at 10 µM.

As usually defined, the IC50 is the concentration at which inhibition is half-maximal. The low end stands for greater potency in that assay, the high end for weaker potency in that assay.

Where only a bound is given, the exact number is not on record here.

Chain of Cyclin-dependent kinase 5/CDK5 activator 1 (Homo sapiens) (Q00535 whole entry): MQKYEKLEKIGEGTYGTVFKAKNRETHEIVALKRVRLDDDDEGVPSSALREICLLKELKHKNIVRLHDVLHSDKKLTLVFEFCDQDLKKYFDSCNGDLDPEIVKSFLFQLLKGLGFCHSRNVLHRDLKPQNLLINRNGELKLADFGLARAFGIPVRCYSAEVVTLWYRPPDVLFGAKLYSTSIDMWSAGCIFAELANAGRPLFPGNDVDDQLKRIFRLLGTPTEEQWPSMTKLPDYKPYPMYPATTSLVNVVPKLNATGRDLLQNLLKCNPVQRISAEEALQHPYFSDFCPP
Chain of Cyclin-dependent kinase 5/CDK5 activator 1 (Homo sapiens) (Q15078 99-307 partner limits assumed): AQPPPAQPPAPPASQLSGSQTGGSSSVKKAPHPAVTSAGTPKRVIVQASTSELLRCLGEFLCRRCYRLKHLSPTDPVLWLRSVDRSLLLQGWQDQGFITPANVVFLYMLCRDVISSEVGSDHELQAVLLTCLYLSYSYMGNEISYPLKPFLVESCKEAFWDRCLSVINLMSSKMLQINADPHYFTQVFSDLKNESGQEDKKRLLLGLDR
Chain of MAP/microtubule affinity-regulating kinase 3 (Homo sapiens) (P27448 whole entry, looked up): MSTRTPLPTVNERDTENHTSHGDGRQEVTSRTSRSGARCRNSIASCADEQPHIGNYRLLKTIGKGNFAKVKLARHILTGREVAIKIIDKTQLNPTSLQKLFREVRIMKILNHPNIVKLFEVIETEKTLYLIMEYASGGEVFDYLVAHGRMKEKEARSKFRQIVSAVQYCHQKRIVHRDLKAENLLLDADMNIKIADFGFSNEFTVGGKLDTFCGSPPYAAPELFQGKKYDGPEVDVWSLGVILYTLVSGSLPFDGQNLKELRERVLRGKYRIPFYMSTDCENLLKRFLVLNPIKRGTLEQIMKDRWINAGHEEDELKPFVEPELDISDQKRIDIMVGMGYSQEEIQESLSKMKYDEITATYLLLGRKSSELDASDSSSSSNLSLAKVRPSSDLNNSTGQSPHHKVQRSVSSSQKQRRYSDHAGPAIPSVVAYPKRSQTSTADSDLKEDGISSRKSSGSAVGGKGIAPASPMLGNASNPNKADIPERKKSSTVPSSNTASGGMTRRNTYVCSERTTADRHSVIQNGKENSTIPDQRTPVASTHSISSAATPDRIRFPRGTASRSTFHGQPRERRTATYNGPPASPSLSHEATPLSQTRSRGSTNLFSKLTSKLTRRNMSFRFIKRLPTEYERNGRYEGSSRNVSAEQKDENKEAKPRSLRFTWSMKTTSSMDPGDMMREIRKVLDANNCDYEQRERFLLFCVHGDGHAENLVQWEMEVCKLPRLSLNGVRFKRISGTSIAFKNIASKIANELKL
Chain of RAC-alpha serine/threonine-protein kinase (P31749 whole entry): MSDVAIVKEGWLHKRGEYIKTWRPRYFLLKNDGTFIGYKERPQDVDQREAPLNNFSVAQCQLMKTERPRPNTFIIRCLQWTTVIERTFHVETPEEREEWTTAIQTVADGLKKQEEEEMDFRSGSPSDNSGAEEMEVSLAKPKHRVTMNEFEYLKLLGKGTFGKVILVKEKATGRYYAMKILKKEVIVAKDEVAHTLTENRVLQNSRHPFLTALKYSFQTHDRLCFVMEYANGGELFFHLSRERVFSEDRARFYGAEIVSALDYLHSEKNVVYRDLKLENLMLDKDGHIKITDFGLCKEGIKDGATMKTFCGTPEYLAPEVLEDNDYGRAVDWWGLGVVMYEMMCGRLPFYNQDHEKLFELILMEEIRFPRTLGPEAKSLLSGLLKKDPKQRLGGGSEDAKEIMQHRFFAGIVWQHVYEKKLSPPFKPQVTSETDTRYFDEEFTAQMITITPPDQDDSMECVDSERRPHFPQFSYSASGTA
Chain of High affinity nerve growth factor receptor (P04629 33-796 limits assumed): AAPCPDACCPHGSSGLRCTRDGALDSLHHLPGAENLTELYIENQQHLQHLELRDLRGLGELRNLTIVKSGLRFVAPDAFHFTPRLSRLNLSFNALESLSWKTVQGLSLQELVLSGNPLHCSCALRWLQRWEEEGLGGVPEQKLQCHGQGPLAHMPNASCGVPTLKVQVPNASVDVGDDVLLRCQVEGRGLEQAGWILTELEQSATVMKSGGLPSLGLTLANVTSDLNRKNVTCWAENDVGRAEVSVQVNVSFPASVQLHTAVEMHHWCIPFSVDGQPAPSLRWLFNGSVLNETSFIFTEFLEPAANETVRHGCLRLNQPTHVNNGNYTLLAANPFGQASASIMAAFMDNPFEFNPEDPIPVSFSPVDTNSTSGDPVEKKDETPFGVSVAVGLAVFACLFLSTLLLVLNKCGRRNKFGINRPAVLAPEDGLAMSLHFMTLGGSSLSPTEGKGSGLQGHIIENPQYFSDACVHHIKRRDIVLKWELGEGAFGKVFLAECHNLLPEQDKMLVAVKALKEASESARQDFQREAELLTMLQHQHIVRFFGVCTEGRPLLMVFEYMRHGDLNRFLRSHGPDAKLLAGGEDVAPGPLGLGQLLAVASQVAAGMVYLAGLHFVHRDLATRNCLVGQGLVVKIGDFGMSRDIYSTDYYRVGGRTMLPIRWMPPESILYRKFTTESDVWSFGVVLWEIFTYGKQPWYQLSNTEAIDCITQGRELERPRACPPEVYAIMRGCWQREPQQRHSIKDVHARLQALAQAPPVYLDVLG

Regarding `Cn1cc(-n2cnc3c(NCc4nc5cc(Cl)c(Cl)cc5[nH]4)nc(N4CCOCC4)nc32)cn1`, in [1], the % of control is -0.23%.

For the compound `CN(C)CCOc1ccc(-c2nc(-c3ccncc3)c(-c3ccc4c(c3)CC/C4=N\O)[nH]2)cc1`, the % of control amounted to 8.6% in assay [2]; 72% in [3]; 37% in [4]; 1.3% in assay [5]; 11% in [6]; 3% in assay [7]. Moreover, the % of control worked out at 1.6% in [8], 9.1% in [9], 10% in assay [10] and 90% in assay [11].

On to `CCc1cc(Nc2nccc(-c3c(-c4ccc(OC)c(C(=O)Nc5c(F)cccc5F)c4)nc4ccccn34)n2)c(OC)cc1N1CCC(N2CCN(S(C)(=O)=O)CC2)CC1`, for which the IC50 in [12] is over 10 µM.

Regarding `CC[C@@H]1[C@H](F)C(=O)N[C@@H]1COc1nccc2cc(C(N)=O)c(OC)cc12` [ZIMLOVISERTIB], in assay [13], the % of inhibition is -4.8%.

Turning to `CC(=O)Nc1cccc(-n2c(=O)n(C3CC3)c(=O)c3c(Nc4ccc(I)cc4F)n(C)c(=O)c(C)c32)c1`, the % of control in assay [14] is 111%.

Take `COc1cc(Nc2nc(C)cc(-c3cnn4nc(OC)ccc34)n2)cc(C(F)(F)F)c1`: the % of control in [15] is 80%.

With `O[C@H]1CC[C@H](Nc2ncc3nc(Nc4c(F)cc(F)cc4F)n([C@H]4CCOC4)c3n2)CC1`, in assay [16], the % of control is 97%.

In the case of `Cc1ccc(-c2ccc3c(ccc4sc5c(c43)NC[C@@H](C)NC5=O)n2)cn1`, the % of inhibition in assay [17] stood at 62%.

On to `COCC(=O)NC/C=C/c1ccc2ncnc(Nc3ccc(Oc4ccc(C)nc4)c(C)c3)c2c1` [CP-724714], for which the % of control in [18] is 93%.
